From ChEMBL document CHEMBL2413072, “Synthesis and in vitro anticancer studies of novel C-2 arylidene congeners of lantadenes” (2013)
Activity calls are given as the source filed them. No cut-off for these calls is given here.

Tests used:
Format in all cases: functional
CAKI-1 [1] = assay: Growth inhibition of human CAKI-1 cells assessed as growth inhibition at 10 uM by sulforhodamine B assay; conditions: read-out: GI
A498 = assay: Growth inhibition of human A498 cells assessed as growth inhibition at 10 uM by sulforhodamine B assay
SK-OV-3 [2] = assay: Growth inhibition of human SKOV3 cells assessed as growth inhibition at 10 uM by sulforhodamine B assay; conditions: read-out: GI
OVCAR-8 [3] = assay: Growth inhibition of human OVCAR8 cells assessed as growth inhibition at 10 uM by sulforhodamine B assay; conditions: read-out: GI
OVCAR-4 [4] = assay: Growth inhibition of human OVCAR4 cells assessed as growth inhibition at 10 uM by sulforhodamine B assay; conditions: read-out: GI
UACC-257 [5] = assay: Growth inhibition of human UACC257 cells assessed as growth inhibition at 10 uM by sulforhodamine B assay; conditions: read-out: GI
SNB-75 [6] = assay: Growth inhibition of human SNB75 cells assessed as growth inhibition at 10 uM by sulforhodamine B assay; conditions: read-out: GI
HT-29 = assay: Growth inhibition of human HT-29 cells assessed as growth inhibition at 10 uM by sulforhodamine B assay; conditions: read-out: GI
NCI-H23 [7] = assay: Growth inhibition of human NCI-H23 cells assessed as growth inhibition at 10 uM by sulforhodamine B assay; conditions: read-out: GI
HOP-62 [8] = assay: Growth inhibition of human HOP62 cells assessed as growth inhibition at 10 uM by sulforhodamine B assay; conditions: read-out: GI
SR [9] = assay: Growth inhibition of human SR cells assessed as growth inhibition at 10 uM by sulforhodamine B assay; conditions: read-out: GI
[10] = Growth inhibition of human Hs 578T cells assessed as cell growth at 10 uM by sulforhodamine B assay; conditions: read-out: Activity
TK-10 = assay: Growth inhibition of human TK10 cells assessed as cell growth at 10 uM by sulforhodamine B assay; conditions: read-out: Activity
SN12C = assay: Growth inhibition of human SN12C cells assessed as cell growth at 10 uM by sulforhodamine B assay; conditions: read-out: Activity
CAKI-1 [11] = assay: Growth inhibition of human CAKI-1 cells assessed as cell growth at 10 uM by sulforhodamine B assay; conditions: read-out: Activity
SK-OV-3 [12] = assay: Growth inhibition of human SKOV3 cells assessed as cell growth at 10 uM by sulforhodamine B assay; conditions: read-out: Activity
[13] = Growth inhibition of human NCI-ADR-RES cells assessed as cell growth at 10 uM by sulforhodamine B assay; conditions: read-out: Activity
OVCAR-8 [14] = assay: Growth inhibition of human OVCAR8 cells assessed as cell growth at 10 uM by sulforhodamine B assay; conditions: read-out: Activity
SNB-75 [15] = assay: Growth inhibition of human SNB75 cells assessed as cell growth at 10 uM by sulforhodamine B assay; conditions: read-out: Activity
HCT-116 = assay: Growth inhibition of human HCT116 cells assessed as cell growth at 10 uM by sulforhodamine B assay; conditions: read-out: Activity
NCI-H522 = assay: Growth inhibition of human NCI-H522 cells assessed as cell growth at 10 uM by sulforhodamine B assay; conditions: read-out: Activity
HOP-62 [16] = assay: Growth inhibition of human HOP62 cells assessed as cell growth at 10 uM by sulforhodamine B assay; conditions: read-out: Activity
SK-MEL-2 = assay: Growth inhibition of human SK-MEL-2 cells assessed as cell growth at 10^-8 M by sulforhodamine B assay; conditions: read-out: Activity
U-251 = assay: Growth inhibition of human U251 cells assessed as cell growth at 10^-8 M by sulforhodamine B assay; conditions: read-out: Activity
OVCAR-8 [17] = assay: Growth inhibition of human OVCAR8 cells by sulforhodamine B assay
UO-31 [18] = assay: Growth inhibition of human UO31 cells assessed as cell growth at 10^-4 M by sulforhodamine B assay; conditions: read-out: Activity
[19] = Growth inhibition of human NCI-ADR-RES cells assessed as cell growth at 10^-4 M by sulforhodamine B assay; conditions: read-out: Activity
MDA-MB-435 [20] = assay: Growth inhibition of human MDA-MB-435 cells assessed as cell growth at 10^-4 M by sulforhodamine B assay; conditions: read-out: Activity
SR [21] = assay: Growth inhibition of human SR cells assessed as cell growth at 10^-4 M by sulforhodamine B assay; conditions: read-out: Activity
K562 = assay: Growth inhibition of human K562 cells assessed as cell growth at 10^-4 M by sulforhodamine B assay; conditions: read-out: Activity
UACC-257 [22] = assay: Growth inhibition of human UACC257 cells assessed as cell growth at 10^-6 M by sulforhodamine B assay; conditions: read-out: Activity
SK-MEL-28 = assay: Growth inhibition of human SK-MEL-28 cells assessed as cell growth at 10^-6 M by sulforhodamine B assay; conditions: read-out: Activity
MDA-MB-435 [23] = assay: Growth inhibition of human MDA-MB-435 cells assessed as cell growth at 10^-6 M by sulforhodamine B assay; conditions: read-out: Activity
Malme-3M = assay: Growth inhibition of human MALME-3M cells assessed as cell growth at 10^-6 M by sulforhodamine B assay; conditions: read-out: Activity
LOX IMVI = assay: Growth inhibition of human LOXIMVI cells assessed as cell growth at 10^-6 M by sulforhodamine B assay; conditions: read-out: Activity
SF-295 = assay: Growth inhibition of human SF295 cells assessed as cell growth at 10^-6 M by sulforhodamine B assay; conditions: read-out: Activity
HOP-92 = assay: Growth inhibition of human HOP92 cells assessed as cell growth at 10^-6 M by sulforhodamine B assay; conditions: read-out: Activity
HOP-62 [24] = assay: Growth inhibition of human HOP62 cells assessed as cell growth at 10^-6 M by sulforhodamine B assay; conditions: read-out: Activity
RPMI-8226 = assay: Growth inhibition of human RPMI8226 cells assessed as cell growth at 10^-6 M by sulforhodamine B assay; conditions: read-out: Activity
UACC-62 = assay: Growth inhibition of human UACC62 cells assessed as cell growth at 10^-7 M by sulforhodamine B assay; conditions: read-out: Activity
SF-268 = assay: Growth inhibition of human SF268 cells assessed as cell growth at 10^-7 M by sulforhodamine B assay; conditions: read-out: Activity
KM12 = assay: Growth inhibition of human KM12 cells assessed as cell growth at 10^-7 M by sulforhodamine B assay; conditions: read-out: Activity
NCI-H23 [25] = assay: Growth inhibition of human NCI-H23 cells assessed as cell growth at 10^-7 M by sulforhodamine B assay; conditions: read-out: Activity
SR [26] = assay: Growth inhibition of human SR cells assessed as cell growth at 10^-7 M by sulforhodamine B assay; conditions: read-out: Activity
BT-549 = assay: Growth inhibition of human BT549 cells assessed as cell growth at 10^-8 M by sulforhodamine B assay; conditions: read-out: Activity
MDA-MB-231 = assay: Growth inhibition of human MDA-MB-231 cells assessed as cell growth at 10^-8 M by sulforhodamine B assay; conditions: read-out: Activity
UO-31 [27] = assay: Growth inhibition of human UO31 cells assessed as cell growth at 10^-8 M by sulforhodamine B assay; conditions: read-out: Activity
OVCAR-4 [28] = assay: Growth inhibition of human OVCAR4 cells assessed as cell growth at 10^-8 M by sulforhodamine B assay; conditions: read-out: Activity

## C/C=C(/C)C(=O)O[C@@H]1CC(C)(C)C[C@H]2C3=CC[C@@H]4[C@@]5(C)CC[C@H](O)C(C)(C)[C@@H]5CC[C@@]4(C)[C@]3(C)CC[C@@]12C(=O)O [Reduced Lantadene A]
CAKI-1 [1]
  inhibition of growth at 10 µM: 70.5%
A498
  growth inhibition (GI): Active
SK-OV-3 [2]
  inhibition of growth at 10 µM: 58.2%
OVCAR-8 [3]
  inhibition of growth at 10 µM: 42.3%
OVCAR-4 [4]
  inhibition of growth at 10 µM: 36.8%
UACC-257 [5]
  inhibition of growth at 10 µM: 39.4%
SNB-75 [6]
  inhibition of growth at 10 µM: 88%
HT-29
  inhibition of growth at 10 µM: 44.2%
NCI-H23 [7]
  inhibition of growth at 10 µM: 35.3%
HOP-62 [8]
  inhibition of growth at 10 µM: 75.7%
SR [9]
  inhibition of growth at 10 µM: 38.1%
[10]
  growth at 10 µM: -17.2%
TK-10
  growth at 10 µM: 66.8%
SN12C
  growth at 10 µM: 5.77%
CAKI-1 [11]
  growth at 10 µM: 29.5%
SK-OV-3 [12]
  growth at 10 µM: 41.8%
[13]
  growth at 10 µM: 69.8%
OVCAR-8 [14]
  growth at 10 µM: 57.7%
SNB-75 [15]
  growth at 10 µM: 11.9%
HCT-116
  growth at 10 µM: 20%
NCI-H522
  growth at 10 µM: 49.7%
HOP-62 [16]
  growth at 10 µM: 24.3%
SK-MEL-2
  growth at 0.01 µM: 107%
U-251
  growth at 0.01 µM: 96%
OVCAR-8 [17]; read-out: GI50
  GI50: 1.92 µM
OVCAR-8 [17]; read-out: TGI
  TGI: 3.87 µM
OVCAR-8 [17]; read-out: pGI50 (converted)
  GI50: 1.91 µM
OVCAR-8 [17]; read-out: pTGI (converted)
  TGI: 3.89 µM
UO-31 [18]
  growth at 100 µM: -66%
[19]
  growth at 100 µM: -30%
MDA-MB-435 [20]
  growth at 100 µM: -47%
SR [21]
  growth at 100 µM: -13%
K562
  growth at 100 µM: -2%
UACC-257 [22]
  growth at 1 µM: 95%
SK-MEL-28
  growth at 1 µM: 90%
MDA-MB-435 [23]
  growth at 1 µM: 90%
Malme-3M
  growth at 1 µM: 92%
LOX IMVI
  growth at 1 µM: 97%
SF-295
  growth at 1 µM: 81%
HOP-92
  growth at 1 µM: 73%
HOP-62 [24]
  growth at 1 µM: 99%
RPMI-8226
  growth at 1 µM: 70%
UACC-62
  growth at 0.1 µM: 88%
SF-268
  growth at 0.1 µM: 106%
KM12
  growth at 0.1 µM: 103%
NCI-H23 [25]
  growth at 0.1 µM: 99%
SR [26]
  growth at 0.1 µM: 81%
BT-549
  growth at 0.01 µM: 99%
MDA-MB-231
  growth at 0.01 µM: 99%
UO-31 [27]
  growth at 0.01 µM: 93%
OVCAR-4 [28]
  growth at 0.01 µM: 97%
